Source: patent publication US20070135383A1, “Phospholipase inhibitors, including multi-valent phospholipase inhibitors, and use thereof, including as lumen-localized phospholipase inhibitors” (priority 2005, published 2007)

Key:
Stability at low pH = format: physicochemical
mouse PLA2 IB enzyme = mouse PLA2 IB enzyme (Mus musculus, UniProt Q9Z0Y2); conditions: versus the mouse PLA2 IB enzyme; cited from earlier work
[1] = molecular target: T1, porcine group 1B PLA2 (pps PLA2) (Sus scrofa, UniProt P00592); assay: Fluorimetric PPyrPM assay for group 1B PLA2 inhibition (Example 12); format: biochemical; conditions: porcine pancreas secreted PLA2; read-out: ILYPSA IC50 pps PLA2
T1 construct: purchased
How it was run: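 Porcine group 1B PLA2 hydrolysis of 4.2 uM PPyrPM vesicle solution (pre-mixing concentration) in 50 mM Tris-HCl pH 8.0, 50 mM KCl, 1 mM CaCl2 with BSA; inhibitors in 8-point threefold series from 15 uM. After 3 min at 37 °C, fluorescence read at ex 342/em 395 nm; duplicate IC50 by four-parameter fit.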

T1 sequence (P00592 23-146): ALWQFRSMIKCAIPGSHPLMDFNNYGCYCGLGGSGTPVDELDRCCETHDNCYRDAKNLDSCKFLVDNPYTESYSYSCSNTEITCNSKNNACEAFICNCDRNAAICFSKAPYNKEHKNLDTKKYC
mouse PLA2 IB enzyme, sequence (Q9Z0Y2 23-146): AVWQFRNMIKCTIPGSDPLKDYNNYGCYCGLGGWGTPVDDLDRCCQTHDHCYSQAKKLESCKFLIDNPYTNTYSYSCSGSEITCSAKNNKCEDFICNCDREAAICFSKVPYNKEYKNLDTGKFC

## Cc1c(C(=O)C(N)=O)c2c(OCC(=O)O)cccc2n1Cc1ccccc1-c1ccccc1 [ILY-4001, 2-(3-(2-amino-2-oxoacetyl)-1-(biphenyl-2-ylmethyl)-2-methyl-1H-indol-4-yloxy)acetic acid]
Stability at low pH
  stability at low pH: stable
Mouse PLA2 IB enzyme
  IC50: 150 nM

## Cc1c(C(=O)C(N)=O)c2c(OCC(=O)O)cccc2n1CCCCCCCCSCCCCCCCCSCCCCCCCCn1c(C)c(C(=O)C(N)=O)c2c(OCC(=O)O)cccc21 [ILY-V-24, 2,2′-(1,1′-(8,8′-(Octane-1,8-diylbis(sulfanediyl))bis(octane-8,1-diyl))bis(3-(2-amino-2-oxoacetyl)-2-methyl-1H-indole-4,1-diyl))bis(oxy)diacetic acid]
[1]
  IC50: 800 nM
